Test results taken from US20100152188A1, “Novel Heterocyclic Compounds” (priority 2005, published 2010).
Read-outs that look alike come from different tables or passages of the source.

Columns and labels:
NCIH460 = experiment: Anti-cancer screen (MTT), NCIH460; format: cell-based; conditions: Homo sapiens, NCI-H460, 48 hours with compound, tested at 0.01-100 µM
Summary of the method: (§1)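 Growth inhibition is measured by MTT reduction after 48 h treatment of cells grown in DMEM with 10% fetal bovine serum. Percent growth uses T0 viability, measured just before dosing, so that net cell kill yields negative values and an LC50.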

[1] = system: NCIH460, HCT116, MDAMB-231/U 251; experiment: Anti-cancer screen, mean GI50 over the cell lines; format: cell-based; conditions: in µM
Summary of the method: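 HCT116, NCIH460 and U251 cells (5000/well) were seeded for 24 h, then exposed in triplicate to 0.01, 0.1, 1, 10 and 100 µM final compound for 48 h. Viability was read by MTT (3 h, absorbance 570 nm), and percent growth was calculated against untreated controls and a T0 plate read at compound addition.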

MDAMB-231/U 251 = experiment: Anti-cancer screen (MTT), MDAMB-231/U 251; format: cell-based; conditions: for CC50: read-out: MDAMB-231/U 251 LC50
Summary of the method: as §1

HCT116 = experiment: Anti-cancer screen (MTT), HCT116; format: cell-based; conditions: Homo sapiens, HCT-116, 48 hours with compound, tested at 0.01-100 µM
Summary of the method: as §1

HDAC = HDAC inhibition; format: biochemical; conditions: for HDAC Inhibition 1 μM: compound at 1 μM; for HDAC Inhibition 10 μM: compound at 10 μM
[2] = 48 hours with compound, MTT, tested at 0.01-100 µM

Molecule CC(=O)N(O)C(=O)Cc1csc(NC(=O)OCc2ccc(Br)s2)n1 [Example 78, (5-bromo-2-thienyl)methyl(4-{2-[acetyl(hydroxy)amino]-2-oxoethyl}-1,3-thiazol-2-yl)carbamate] has a GI50 (NCIH460) of 6.5 µM, an IC (TGI) (NCIH460) of 45 µM and an LC50 (NCIH460) of over 100 µM. For the same molecule, the “Mean GI50” value [1] was 18.8, the GI50 (MDAMB-231/U 251; [2]) was 20 µM and the IC (TGI) (MDAMB-231/U 251; [2]) was 75 µM. For the same molecule, the CC50 (MDAMB-231/U 251; [2]) was over 100 µM, the GI50 (HCT116) was 30 µM and the IC (TGI) (HCT116) was 80 µM. The CC50 (HCT116; read-out: HCT116 LC50) was over 100 µM, the “HDAC Inhibition 1 μM” value (HDAC) was 3.61 and the “HDAC Inhibition 10 μM” value (HDAC) was 35.88.
CC(=O)N(O)C(=O)Cc1csc(NC(=O)OCc2cccs2)n1 [Example 80, 2-Thienylmethyl(4-{2-[acetyl(hydroxy)amino]-2-oxoethyl}-1,3-thiazol-2-yl)carbamate] was tested, and the GI50 (NCIH460) was 53 µM, the IC (TGI) (NCIH460) was over 100 µM and the LC50 (NCIH460) was over 100 µM. For the same molecule, the “Mean GI50” value [1] was over 100, the CC50 (MDAMB-231/U 251; 48 h) was over 100 µM and the GI50 (MDAMB-231/U 251; [2]) was 35 µM. It also gave an IC (TGI) (MDAMB-231/U 251; [2]) of 96 µM, a GI50 (HCT116) of over 100 µM and an IC (TGI) (HCT116) of over 100 µM. The LC50 (concentration giving 50% net cell kill relative to T0) (HCT116) was over 100 µM and the “HDAC Inhibition 10 μM” value (HDAC) was 5.28.
With CC(=O)ONC(=O)c1ccc(CNC(=O)OCc2cccs2)cc1 [Example 82, 2-Thienylmethyl(4-{[(acetyloxy)amino]carbonyl}benzyl)carbamate] the GI50 (NCIH460) was 24 µM, the IC (TGI) (NCIH460) was 62 µM and the LC50 (NCIH460) was over 100 µM. The “Mean GI50” value [1] was 19.66, the CC50 (MDAMB-231/U 251; 48 h) was over 100 µM and the GI50 (MDAMB-231/U 251; [2]) was 28 µM. It also gave an IC (TGI) (MDAMB-231/U 251; [2]) of 52 µM, a GI50 (HCT116) of 7 µM and an IC (TGI) (HCT116) of 41 µM. For the same molecule, the LC50 (concentration giving 50% net cell kill relative to T0) (HCT116) was 78 µM, the “HDAC Inhibition 1 μM” value (HDAC) was 48.96 and the “HDAC Inhibition 10 μM” value (HDAC) was 86.12.
In the case of CC(=O)ONC(=O)c1ccc(CNC(=O)OCc2nccs2)cc1 [Example 83, 1,3-thiazol-2-ylmethyl(4-{[(acetyloxy)amino]carbonyl}benzyl)carbamate], the GI50 (NCIH460) is reported as 30 µM, the IC (TGI) (NCIH460) is reported as 60 µM and the LC50 (NCIH460) is reported as 90 µM. For the same molecule, the “Mean GI50” value [1] was 16.33, the CC50 (MDAMB-231/U 251; 48 h) was over 100 µM and the GI50 (MDAMB-231/U 251; [2]) was 9 µM. The IC (TGI) (MDAMB-231/U 251; [2]) was 66 µM, the GI50 (HCT116) was 10 µM and the IC (TGI) (HCT116) was 56 µM. The LC50 (concentration giving 50% net cell kill relative to T0) (HCT116) was 84 µM, the “HDAC Inhibition 1 μM” value (HDAC) was 22.38 and the “HDAC Inhibition 10 μM” value (HDAC) was 63.89.
In the case of COC(=O)ONC(=O)c1ccc(CNC(=O)OCc2cccs2)cc1 [Example 84, 2-Thienylmethyl[4-({[(methoxycarbonyl)oxy]amino}carbonyl)benzyl]carbamate], the GI50 (NCIH460) is reported as 81 µM, the IC (TGI) (NCIH460) is reported as over 100 µM and the LC50 (NCIH460) is reported as over 100 µM. The “Mean GI50” value [1] was over 100, the CC50 (MDAMB-231/U 251; 48 h) was over 100 µM and the GI50 (MDAMB-231/U 251; [2]) was 54 µM. It also gave an IC (TGI) (MDAMB-231/U 251; [2]) of over 100 µM, a GI50 (HCT116) of over 100 µM and an IC (TGI) (HCT116) of over 100 µM. For the same molecule, the LC50 (concentration giving 50% net cell kill relative to T0) (HCT116) was over 100 µM, the “HDAC Inhibition 1 μM” value (HDAC) was 20.20 and the “HDAC Inhibition 10 μM” value (HDAC) was 61.74.
For O=C(CCCCCNC(=O)Cc1csc(NC(=O)OCc2cccnc2)n1)NO [Example 87, pyridin-3-ylmethyl[4-(2-{[6-(hydroxyamino)-6-oxohexyl]amino}-2-oxoethyl)-1,3-thiazol-2-yl]carbamate], the GI50 (NCIH460) was over 100 µM, the IC (TGI) (NCIH460) was over 100 µM and the LC50 (NCIH460) was over 100 µM. The “Mean GI50” value [1] was over 100, the CC50 (MDAMB-231/U 251; 48 h) was over 100 µM and the GI50 (MDAMB-231/U 251; [2]) was 10 µM. It also gave an IC (TGI) (MDAMB-231/U 251; [2]) of over 100 µM, a GI50 (HCT116) of over 100 µM and an IC (TGI) (HCT116) of over 100 µM. For the same molecule, the LC50 (concentration giving 50% net cell kill relative to T0) (HCT116) was over 100 µM, the “HDAC Inhibition 1 μM” value (HDAC) was 42.24 and the “HDAC Inhibition 10 μM” value (HDAC) was 87.80.
Work on O=C(CCCCCNC(=O)Cc1csc(NC(=O)OCc2nc3ccccc3s2)n1)NO [Example 90, 1,3-Benzothiazol-2-ylmethyl[4-(2-{[6-(hydroxyamino)-6-oxohexyl]amino}-2-oxoethyl)-1,3-thiazol-2-yl]carbamate] yielded a GI50 (NCIH460) of 38 µM, an IC (TGI) (NCIH460) of 98 µM and an LC50 (NCIH460) of over 100 µM. The “Mean GI50” value [1] was 25.35, the CC50 (MDAMB-231/U 251; 48 h) was 98 µM and the GI50 (MDAMB-231/U 251; [2]) was 0.06 µM. It also gave an IC (TGI) (MDAMB-231/U 251; [2]) of 48 µM, a GI50 (HCT116) of 38 µM and an IC (TGI) (HCT116) of 65 µM. For the same molecule, the LC50 (concentration giving 50% net cell kill relative to T0) (HCT116) was over 100 µM, the “HDAC Inhibition 1 μM” value (HDAC) was 61.63 and the “HDAC Inhibition 10 μM” value (HDAC) was 98.85.
